Literature values, collected in patent publication US20230149481A1, “COMBINATION THERAPY FOR INFLAMMATORY BOWEL DISEASE” (Servatus Ltd, priority 2020, published 2023).

System: DSS-induced colitis
Settings: previous tests in the same DSS-induced colitis model, compared with the Group 5 treatment of Example 1

SMILES | in-life disease score
C[C@]12C=CC(=O)C=C1CC[C@@H]1[C@@H]2[C@@H](O)C[C@@]2(C)[C@H]1CC[C@]2(O)C(=O)CO [prednisolone] | None of these drugs statistically improved the in-life disease score to the extent observed
O=C(O)c1cc(/N=N/c2ccc(S(=O)(=O)Nc3ccccn3)cc2)ccc1O [sulfasalazine] | None of these drugs statistically improved the in-life disease score to the extent observed
